{"source": "paper PMC10601079", "about": "(ACS Omega, 2023)"}
{"test_system": "ACS", "test": "coupled spectrophotometric assay of AMP formation", "format": "biochemical, Gordonia sp. NB4-1Y", "conditions": "2.5 mM ATP, 1.5 mM CoA, 5 mM MgCl2, 1 mM DTT, 50 mM potassium phosphate pH 7.5, 25 °C", "units": {"Km": "mM"}}
{"smiles": "O=C(O)CCCC(F)(F)F", "note": "[1:4 FTCA, 5,5,5-trifluoropentanoic acid]", "Km": "12.5 ± 0.7"}
{"smiles": "CCC(=O)O", "note": "[propionic acid]", "Km": "1.7 ± 0.2"}
{"smiles": "CCCCC(=O)O", "note": "[pentanoic acid]", "Km": "0.109 ± 0.011"}
{"smiles": "CC(=O)O", "note": "[acetate]", "Km": "78.3 ± 7.4"}
